Assay results: patent EP0324328B1, “Use of the N-n-butyl derivative of desoxynojirimycin in the manufacture of a medicament inhibiting HIV-Virus” (priority 1987, dated 1989)
Where two headings read alike, the source gives them in different places.

Key:
T-45 cells = type: cell-based, human; conditions: for Estimated Cell Growth Virus-uninfected Day 7: no-drug control 1.2x10^6; for cytotoxicity: non-infected cells, over the concentration range used (Fig. 3, Table 1), result in words
Description: FIG. 1 is a schematic outline of the test procedure used to assess the cytotoxic effect of test compounds on T-cells either infected or non-infected with HIV and in parallel the HIV inhibitory activity of the test compounds. TCID is the tissue culture infectious dose. Cells were cultured in RPMI-1640 medium with 10% fetal calf serum containing 100 units/ml penicillin G and 100 µg/ml streptomycin.
The assay was run in 96 well plastic microtiter plates in which 0.2 ml of culture medium containing 10^4 T-cells are seeded into each well. RPMI-1640 supplemented with 10% fetal calf serum was used as the culture medium. In each assay, 6 wells are used. Three (1-3) are infected with 10^4 TCID/well of HIV-1 or HIV-2 and to the other three (4-6) culture medium alone is added. Medium is changed at the same intervals for each test compound. The detailed assay procedure is illustrated in Figures 1 and 2.
The efficacy of the test compounds used in this example was assessed as follows: 0.2 ml of culture medium containing 10^4 T-45 cells were transferred into each well of a 96-well flat-bottomed tissue-culture plastic plate and the cells were allowed to settle at 37°C (see Figure 1). After 4 hours the media were aspirated and replaced with media which contained the test compound. Following overnight incubation the media was aspirated and 10^4 TCID of virus (HIV-1 or HIV-2) was added to each well. Incubation was continued at 37°C in 5% CO2 for 1 hour. Thereafter, growth media containing the various compounds were added and incubation at 37°C was continued. On the fourth day the cell suspensions from each well were split and seeded into two new wells and 0.2 ml of fresh media with compounds was added. This was repeated on the seventh day. Cells were examined by microscopy during days 1 to 10 for the presence of syncytia, growth rate and the appearance of the cytopathic effect (CPE) (giant cells, pycnotic nuclei, loss of refractility). CPE (100%) was defined as no round, refractile, uniform cells remaining; only giant, ballooned pyknotic cells were present. The viability of HIV infected cultures was determined by a rough count/estimate of cells which underwent CPE in relation to round refractile uniform (normal) cells in a given culture.
Quantitative data on the effect of the various compounds on the non-infected cells (cytotoxicity) was obtained by comparison of their growth rate to control cells not exposed to drugs (Table 1). […] In addition, the MOLT-4 cell line was also used.

HIV-1 = experiment: Time to develop CPE after transfer of HIV-1 infected cells to drug-free medium; type: cell-based
Description: FIG. 2 is a schematic outline of the test procedure used to determine the relative proportion of HIV-infected cells in cultures containing 0.1 mg/ml of the inhibitory test compound. At various times aliquots of the infected cell suspensions were transferred to inhibitor-free medium and the time taken for the cells to develop cytopathic effect (CPE) was recorded.
After 55 days of culture (O) in the presence of drug no virus appeared during 100 additional days of culture in the absence of drug (after removal of drug).
To determine if there was a gradual reduction of HIV-infected cells in cultures maintained with BuDNJ, aliquots of cells infected with 10^4 TCID of HIV-1 and grown in the presence of 0.1 mg/ml BuDNJ for varying lengths of time were transferred to separate wells and grown in drug-free medium as indicated in […]. The cultures were then monitored for development of CPE, indicative of active HIV replication. The times for the appearance of an advanced CPE were recorded. […]
In order to determine whether or not there was an actual reduction in HIV-infected cells in the presence of BuDNJ, aliquots of the infected cell suspension, grown for varying times in the presence or drug, where transferred to drug-free medium as outlined in Figure 2. The cultures were then monitored for the development of CPE and giant cell formation (indicative of active HIV replication). […]

Compound | Estimated Cell Growth Virus-uninfected Day 7 (T-45 cells; Dosage 0.01 mg/ml) | Estimated Cell Growth Virus-uninfected Day 7 (T-45 cells; Dosage 0.05 mg/ml) | Estimated Cell Growth Virus-uninfected Day 7 (T-45 cells; Dosage 0.10 mg/ml) | Estimated Cell Growth Virus-uninfected Day 7 (T-45 cells; Dosage 0.25 mg/ml) | Estimated Cell Growth Virus-uninfected Day 7 (T-45 cells; Dosage 0.50 mg/ml) | cytotoxicity (T-45 cells) | days before CPE expression (HIV-1; 0.1 mg/ml drug for 55 days of culture, then culture in the absence of drug) [days] | proportion of infected cells in the cultures (HIV-1; prolonged exposure, 0.1 mg/ml, result in words)
CN1C[C@H](O)[C@@H](O)[C@H](O)[C@H]1CO [MeDNJ, N-methyl-deoxynojirimycin] | 1.2x10^6 | 1.2x10^6 | 1.0x10^6 | 1.0x10^6 | 5.0x10^6 | cytotoxic |  | 
CCCCN1C[C@H](O)[C@@H](O)[C@H](O)[C@H]1CO [BuDNJ, N-n-butyl-deoxynojirimycin] | 1.2x10^6 | 1.2x10^6 | 1.4x10^6 |  |  | showed no cytotoxicity over the concentration range used | > 100 | reduced the proportion of infected cells in the cultures
